The numbers were not newly measured in patent US11993576B2, “N-benzyl-N-arylsulfonamide derivative and preparation and use thereof” (Hangzhou Yirui Pharmaceutical Technology Co., Ltd, priority 2019, dated 2024), which cites them from elsewhere.

The test system of data set [1] is SCID mouse psoriasis xenograft model. Particulars: injection or topical skin application; cited from earlier work.
The test system of data set [2] is allergic contact dermatitis. Particulars: applied topically, rat; cited from earlier work.
Data set [3] deals with Th2 TEM cells with highly expressed Kv1.3. As to conditions: ovalbumin-induced asthma, rat; cited from earlier work.
In the next data set the test system is EAE. Particulars: in vivo; cited from earlier work.
Data set [4] deals with rat model of autoimmune glomerular basal membrane nephritis. As to conditions: intraperitoneal injection; cited from earlier work.

Turning to `O=c1ccc2c(OCCCCOc3ccccc3)c3ccoc3cc2o1` [PAP-1], in data set [1], the “reduction of infiltrated CD3+ lymphocytes” value is 85% and the “reduction of thickness of pathological epidermal hyperplasia” value is recorded as “approximately 50%”. The allergic contact dermatitis result in data set [2] is listed as “can effectively inhibit allergic contact dermatitis”.

For SHK-186, the “proliferation of Th2 TEM cells and production of cytokines” value in data set [3] was “can effectively inhibit proliferation of Th2 TEM cells with highly expressed Kv1.3 and production of cytokines”. Also, in the data set on EAE, the “inductive occurrence of EAE” value is “can resist inductive occurrence of EAE”; the “production of IFN-γ and IL-17” value was “inhibit production of IFN-γ and IL-17”.

With `O=c1ccc2c(OCCCCc3ccccc3)c3ccoc3cc2o1` [Psora-4], the “proteinuria and crescentic glomeruli” value in data set [4] is “can significantly decrease proteinuria and crescentic glomeruli”.
